Data reported in ChEMBL document CHEMBL1201862, “PubChem BioAssay data set” (2004).
Calls of active or inactive are those of the source.

What was measured:
[1] = biological target: Dual specificity tyrosine-phosphorylation-regulated kinase 1A (Rattus norvegicus, UniProt Q63470); assay type: biochemical, Homo sapiens
[2] = viability of uninfected HEp-2 cells – cell-based, HTS, cytotoxicity control for RSV inhibitor project, dose response (AID 2410); assay type: functional; details: human respiratory syncytial virus
[3] = cells
[4] = biological target: T1, Oxysterols receptor LXR-beta (Homo sapiens, UniProt P55055); assay type: functional, cell-based;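 note: Cell-based luminescence dose-response assay of agonist activity at LXR, run as a confirmatory counterscreen to a daf-12 agonist screen; HEK293 cells with Gal4-LXR fusion and GAL4-driven luciferase reporter; agonist potency from rising luciferase signal of a Gal4-LXR reporter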
T1 sequence (P55055 whole entry): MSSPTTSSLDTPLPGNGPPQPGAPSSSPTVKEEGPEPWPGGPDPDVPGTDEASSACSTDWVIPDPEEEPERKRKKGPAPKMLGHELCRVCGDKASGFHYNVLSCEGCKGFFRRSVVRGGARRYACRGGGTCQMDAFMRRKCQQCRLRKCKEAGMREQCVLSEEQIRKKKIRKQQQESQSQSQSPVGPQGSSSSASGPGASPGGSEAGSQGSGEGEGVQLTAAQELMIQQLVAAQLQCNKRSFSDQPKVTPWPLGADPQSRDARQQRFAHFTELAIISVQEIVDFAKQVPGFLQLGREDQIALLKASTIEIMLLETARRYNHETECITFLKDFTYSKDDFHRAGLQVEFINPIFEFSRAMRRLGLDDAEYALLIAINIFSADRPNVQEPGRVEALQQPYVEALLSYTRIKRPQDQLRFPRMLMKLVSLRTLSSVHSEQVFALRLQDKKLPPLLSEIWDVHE

[5] = biological target: Transthyretin (Homo sapiens, UniProt P02766); experiment: Luminescence-based cell-based high throughput dose response assay to identify activators of Transthyretin (TTR) transcription.; assay type: functional
[6] = biological target: Aryl hydrocarbon receptor (Homo sapiens, UniProt P35869); experiment: Luminescence-based cell-based high throughput dose response assay for activators of the Aryl Hydrocarbon Receptor (AHR). [Related pubchem assays: 2796 (Primary screen (AHR activators in singlicate)), 2845 (Confirmation screen (AHR activators in triplicate)), 434939 (Counterscreen (PXR activators in triplicate)), 2804 (Summary (AHR activators))]; assay type: ADME
[7] = P. falciparum Dd2 growth inhibitors, dose response, SYBR Green, cherry-picked samples (AID 1159567); assay type: functional, cell-based
[8] = toxicity to human hepatoma HepG2 cells – cell-based, cherry-picked samples, cytotoxicity control, dose response (AID 1159577); assay type: functional
[9] = biological target: T2, Streptokinase A (Streptococcus pyogenes serotype M1, UniProt P10520); experiment: viability-normalized secreted streptokinase activity reduction – plasminogen activation absorbance, OD405, dose response (AID 1914); assay type: functional, Streptococcus pyogenes M1 GAS;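 note: secreted streptokinase activity via plasminogen activation per viability signal from cell pellet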
T2 sequence (P10520 whole entry): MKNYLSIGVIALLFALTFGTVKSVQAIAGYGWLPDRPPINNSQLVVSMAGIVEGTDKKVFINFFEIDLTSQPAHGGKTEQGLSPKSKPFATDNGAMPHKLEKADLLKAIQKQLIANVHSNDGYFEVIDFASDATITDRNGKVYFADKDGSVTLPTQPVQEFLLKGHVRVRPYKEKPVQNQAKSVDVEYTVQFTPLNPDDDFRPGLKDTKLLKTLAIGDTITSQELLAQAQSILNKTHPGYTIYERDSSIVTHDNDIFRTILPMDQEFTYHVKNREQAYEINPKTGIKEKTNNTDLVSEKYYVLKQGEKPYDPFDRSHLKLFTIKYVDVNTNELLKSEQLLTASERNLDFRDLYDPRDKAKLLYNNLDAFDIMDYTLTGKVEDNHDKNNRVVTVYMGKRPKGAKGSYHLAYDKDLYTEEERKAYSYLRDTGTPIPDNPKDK

[10] = test system: Streptococcus; experiment: GAS UMAA2166 growth inhibition – luminescence, BacTiterGlo, counter-screen for streptokinase expression inhibitor project, dose response (AID 1915); assay type: functional, organism-based;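 note: potency for reduction of bacterial viability or growth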
[11] = test system: Streptococcus sp. 'group A'; experiment: Streptococcus pyogenes SK(-)GAS viability under kanamycin – luminescence, BacTiterGlo, confirmation, counter-screen for streptokinase expression inhibitor project, dose response (AID 1900); assay type: functional, organism-based
[12] = biological target: Disintegrin and metalloproteinase domain-containing protein 17 (Homo sapiens, UniProt P78536); experiment: inhibition of ADAM17 substrate cleavage – biochemical, quenched FRET substrate, counter-screen for ADAM10 exosite inhibitor project, dose response (AID 743253)
[13] = Counterscreen for inhibitors of Trypanosoma brucei methionyl tRNA synthetase (MetRS): Luminescence-based cell-based high throughput dose response assay to identify compounds that are cytotoxic to Jurkat human T lymphocyte cells.; assay type: functional
[14] = Late stage counterscreen for inhibitors of Trypanosoma brucei methionyl tRNA synthetase (MetRS): Luminescence-based cell-based high throughput dose response assay to identify compounds that are cytotoxic to Jurkat human T lymphocyte cells.; assay type: functional
[15] = biological target: T3, Methionyl-tRNA synthetase, putative (Trypanosoma brucei brucei, UniProt Q38C91); assay type: functional, Trypanosoma brucei brucei strain 927/4 GUTat10.1
T3 sequence (Q38C91 whole entry): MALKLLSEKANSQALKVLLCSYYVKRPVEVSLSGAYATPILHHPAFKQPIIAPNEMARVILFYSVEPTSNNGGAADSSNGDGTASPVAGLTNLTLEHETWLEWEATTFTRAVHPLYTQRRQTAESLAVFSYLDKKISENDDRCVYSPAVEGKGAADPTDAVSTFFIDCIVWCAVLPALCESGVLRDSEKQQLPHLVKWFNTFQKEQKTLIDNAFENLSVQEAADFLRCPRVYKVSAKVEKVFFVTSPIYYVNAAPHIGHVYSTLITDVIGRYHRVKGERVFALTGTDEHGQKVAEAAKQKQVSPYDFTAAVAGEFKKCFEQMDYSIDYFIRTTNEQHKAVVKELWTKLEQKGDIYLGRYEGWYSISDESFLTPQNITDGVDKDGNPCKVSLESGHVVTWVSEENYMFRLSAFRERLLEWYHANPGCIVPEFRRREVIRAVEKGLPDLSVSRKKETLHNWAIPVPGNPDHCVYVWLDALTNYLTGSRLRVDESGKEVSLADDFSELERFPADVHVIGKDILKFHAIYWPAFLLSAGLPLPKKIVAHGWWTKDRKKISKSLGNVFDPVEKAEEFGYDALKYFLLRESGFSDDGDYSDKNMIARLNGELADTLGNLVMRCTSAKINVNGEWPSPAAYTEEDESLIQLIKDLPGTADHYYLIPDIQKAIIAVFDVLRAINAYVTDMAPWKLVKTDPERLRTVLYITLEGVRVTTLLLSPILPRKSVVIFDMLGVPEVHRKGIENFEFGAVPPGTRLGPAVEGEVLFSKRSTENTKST

[16] = biological target: T3, Methionyl-tRNA synthetase, putative; assay type: functional, Trypanosoma brucei brucei strain 927/4 GUTat10.1; remark: listed apart in the source
[17] = A549 cell cytotoxicity, dose response, cytotoxicity control, plate reader, cherry-pick, antagonist series (AID 743412); assay type: functional, cell-based
[18] = toxicity toward HepG2 liver cells – cell-based, plate reader, cherry-pick, antagonist series, cytotoxicity control, dose response (AID 743416); assay type: functional
[19] = blockade of melanocortin 4 receptor signaling – cell-based, plate reader, cherry pick, counter-screen for LGR2 antagonist project, dose response (AID 743444); assay type: functional;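 note: transfected HEK 293 cells stimulated with alpha-MSH peptide; potency of inhibitors of the alpha-MSH evoked signal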
[20] = blockers of bursicon-stimulated LGR2 cAMP reporter – cell-based, HEK293, CRE-luciferase reporter, cherry pick, set 2, dose response (AID 743343); assay type: functional;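 note: transfected cells were stimulated with diluted bursicon conditioned medium after compound addition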
[21] = biological target: Protein Tat (Human immunodeficiency virus type 1 group M subtype B (isolate HXB2)(HIV-1), UniProt P04608); assay type: functional;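 note: tat binding to TAR RNA read out by fluorescence polarization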
[22] = rise of 2N DNA cells, HeLa – IC50, dose response (AID 1117349); assay type: functional, cell-based
[23] = rise of 4N DNA cells, HeLa – IC50, dose response (AID 1117351); assay type: functional, cell-based
[24] = biological target: Prothrombin (Homo sapiens, UniProt P00734); experiment: Thrombin 1536 HTS Dose Response Confirmation. [Related pubchem assays: 1046 (Thrombin 1536 HTS; hits were confirmed in this assay)]; assay type: functional
[25] = biological target: T4, Corticotropin-releasing factor receptor 2/Corticotropin-releasing factor-binding protein (Homo sapiens, UniProt P24387+Q13324); experiment: Dose Response confirmation of uHTS hits for small molecule antagonists of the CRF-binding protein and CRF-R2 receptor complex.; assay type: functional; details: read-out: IC50_Mean
T4 sequence (Q13324 whole entry): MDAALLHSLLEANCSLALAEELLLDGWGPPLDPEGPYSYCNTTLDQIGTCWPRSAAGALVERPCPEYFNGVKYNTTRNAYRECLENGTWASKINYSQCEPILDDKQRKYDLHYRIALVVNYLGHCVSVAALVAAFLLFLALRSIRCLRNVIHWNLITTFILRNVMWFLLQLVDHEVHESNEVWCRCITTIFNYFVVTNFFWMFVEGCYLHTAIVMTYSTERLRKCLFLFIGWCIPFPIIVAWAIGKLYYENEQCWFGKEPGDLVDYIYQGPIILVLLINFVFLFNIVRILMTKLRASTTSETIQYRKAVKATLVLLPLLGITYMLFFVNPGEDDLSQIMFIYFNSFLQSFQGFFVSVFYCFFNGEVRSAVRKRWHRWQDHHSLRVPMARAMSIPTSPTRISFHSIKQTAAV
T4 sequence (P24387 whole entry): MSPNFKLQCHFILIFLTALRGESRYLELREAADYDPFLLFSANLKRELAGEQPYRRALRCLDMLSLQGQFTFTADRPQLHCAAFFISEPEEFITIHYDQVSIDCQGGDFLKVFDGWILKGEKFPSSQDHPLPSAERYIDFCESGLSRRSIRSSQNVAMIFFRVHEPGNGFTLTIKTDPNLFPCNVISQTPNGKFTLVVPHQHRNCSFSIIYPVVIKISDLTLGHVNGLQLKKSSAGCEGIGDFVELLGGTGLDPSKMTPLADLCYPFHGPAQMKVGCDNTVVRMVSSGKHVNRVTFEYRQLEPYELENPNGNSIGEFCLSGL

[26] = biological target: Cytochrome P450 3A4 (Homo sapiens, UniProt P08684);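 note: CYP3A4 tested as one member of a cytochrome P450 panel screen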
[27] = biological target: T4, Corticotropin-releasing factor receptor 2/Corticotropin-releasing factor-binding protein; experiment: activators of CRF receptor 2 with binding protein – uHTS hits, confirmation (AID 602473); assay type: functional; details: read-out: EC50_Mean
[28] = blockers of CRF-binding protein–CRF-R2 complex – cell-based, uHTS hits, 384-well, dose response (AID 651639); assay type: functional, Homo sapiens; details: read-out: IC50_Mean
[29] = HEK293 Cytotoxicity Assay Measured in Cell-Based System Using Plate Reader - 7071-01_Inhibitor_Dose_CherryPick_Activity_Set2.; assay type: functional
[30] = test system: HEK293; experiment: viability loss in HEK293T cells – cell-based, ATP luminescence, cherry-pick samples, cytotoxicity control, dose response (AID 687005); assay type: functional; details: Homo sapiens;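 note: cells exposed to compound for 48 hours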
[31] = cells; assay type: functional, cell-based; details: INS-1E
[32] = IC50 of insulin release inhibition, rat insulinoma INS-1E line, 5 mM glucose, cell-based (AID 1117331); assay type: functional
[33] = biological target: Heat shock protein HSP 90-alpha (Homo sapiens, UniProt P07900); experiment: Luminescence-based dose response biochemical high throughput screening assay for inhibitors of the Heat Shock Protein 90 (HSP90). [Related pubchem assays: 1831 (Summary AID.), 1846 (Confirmation screen.), 1789 (Primary screen.)]

Aryl hydrocarbon receptor, sequence (P35869 whole entry): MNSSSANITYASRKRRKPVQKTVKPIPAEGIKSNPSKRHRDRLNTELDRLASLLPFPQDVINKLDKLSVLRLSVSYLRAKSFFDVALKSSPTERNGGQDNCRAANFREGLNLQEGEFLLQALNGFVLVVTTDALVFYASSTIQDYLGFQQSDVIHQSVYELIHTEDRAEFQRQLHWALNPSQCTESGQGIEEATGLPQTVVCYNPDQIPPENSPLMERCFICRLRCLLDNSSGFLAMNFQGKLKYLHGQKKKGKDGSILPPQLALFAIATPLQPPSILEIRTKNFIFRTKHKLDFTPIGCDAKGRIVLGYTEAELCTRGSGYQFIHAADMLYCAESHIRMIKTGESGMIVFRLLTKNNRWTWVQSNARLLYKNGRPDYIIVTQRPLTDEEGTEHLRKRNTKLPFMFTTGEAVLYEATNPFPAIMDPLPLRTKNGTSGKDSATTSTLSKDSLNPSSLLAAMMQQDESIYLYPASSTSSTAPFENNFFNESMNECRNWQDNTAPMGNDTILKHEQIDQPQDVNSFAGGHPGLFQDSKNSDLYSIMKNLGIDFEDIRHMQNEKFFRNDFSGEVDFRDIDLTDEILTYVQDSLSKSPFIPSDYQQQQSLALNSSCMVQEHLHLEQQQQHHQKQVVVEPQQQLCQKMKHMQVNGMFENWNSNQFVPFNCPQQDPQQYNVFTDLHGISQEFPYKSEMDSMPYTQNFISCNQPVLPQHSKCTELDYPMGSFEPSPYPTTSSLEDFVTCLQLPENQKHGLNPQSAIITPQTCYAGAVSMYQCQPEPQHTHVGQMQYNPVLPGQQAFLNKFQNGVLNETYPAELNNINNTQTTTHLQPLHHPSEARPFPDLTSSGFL
Disintegrin and metalloproteinase domain-containing protein 17, sequence (P78536 whole entry, the tested form may be a part): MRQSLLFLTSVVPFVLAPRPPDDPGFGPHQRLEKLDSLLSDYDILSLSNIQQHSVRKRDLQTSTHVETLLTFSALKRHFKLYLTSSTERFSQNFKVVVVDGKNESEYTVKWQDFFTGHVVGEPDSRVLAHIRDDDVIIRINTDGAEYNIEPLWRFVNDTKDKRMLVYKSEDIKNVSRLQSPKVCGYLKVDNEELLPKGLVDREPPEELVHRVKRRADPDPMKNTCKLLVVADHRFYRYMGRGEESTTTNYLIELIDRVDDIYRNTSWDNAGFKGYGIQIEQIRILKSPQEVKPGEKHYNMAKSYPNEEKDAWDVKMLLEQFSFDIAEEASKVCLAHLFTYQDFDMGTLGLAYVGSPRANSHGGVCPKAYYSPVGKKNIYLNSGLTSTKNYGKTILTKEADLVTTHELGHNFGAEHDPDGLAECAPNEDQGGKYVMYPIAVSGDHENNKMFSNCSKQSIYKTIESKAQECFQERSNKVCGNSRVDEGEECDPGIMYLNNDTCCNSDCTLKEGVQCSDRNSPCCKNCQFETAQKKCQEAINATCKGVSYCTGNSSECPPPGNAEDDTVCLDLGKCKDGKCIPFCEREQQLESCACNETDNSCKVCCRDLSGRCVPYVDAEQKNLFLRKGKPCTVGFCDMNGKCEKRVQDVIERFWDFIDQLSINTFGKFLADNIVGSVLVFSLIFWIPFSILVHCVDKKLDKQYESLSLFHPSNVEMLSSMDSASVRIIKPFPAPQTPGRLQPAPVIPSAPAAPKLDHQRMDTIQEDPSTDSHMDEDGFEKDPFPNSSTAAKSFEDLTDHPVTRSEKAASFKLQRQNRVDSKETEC
Protein Tat, sequence (P04608 whole entry): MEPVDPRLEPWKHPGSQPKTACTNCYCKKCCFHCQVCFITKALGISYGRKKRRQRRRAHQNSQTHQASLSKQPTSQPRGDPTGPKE
Cytochrome P450 3A4, sequence (P08684 whole entry): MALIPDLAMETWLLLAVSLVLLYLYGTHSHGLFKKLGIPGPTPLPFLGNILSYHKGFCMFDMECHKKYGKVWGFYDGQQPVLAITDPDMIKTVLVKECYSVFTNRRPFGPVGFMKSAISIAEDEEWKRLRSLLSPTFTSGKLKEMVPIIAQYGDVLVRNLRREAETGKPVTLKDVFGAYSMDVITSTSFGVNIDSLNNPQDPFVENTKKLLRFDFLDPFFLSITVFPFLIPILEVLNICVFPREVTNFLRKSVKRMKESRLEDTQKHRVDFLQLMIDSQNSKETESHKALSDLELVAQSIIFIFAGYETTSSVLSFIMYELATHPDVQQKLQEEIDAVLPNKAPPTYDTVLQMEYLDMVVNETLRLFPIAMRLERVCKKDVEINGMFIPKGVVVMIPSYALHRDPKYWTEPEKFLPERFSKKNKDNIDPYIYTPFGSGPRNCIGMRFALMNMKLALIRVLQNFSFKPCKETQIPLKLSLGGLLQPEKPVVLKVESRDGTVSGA

SMILES: Oc1ccc(-c2nccc(-c3cccs3)n2)cc1
- AC50 [1]: 6.5 µM (active)
- CC50 [2]: 27.9 µM (active)
- EC50 [3]: > 67.6 µM (inactive)
- EC50 [4]: > 67.6 µM (inactive)

SMILES: COc1ccc(-c2noc(-c3cccs3)n2)cc1OC
- EC50 [5]: > 167 µM (inactive)

SMILES: [O-][n+]1onc2c3cc(-c4ccccc4)nnc3ccc21
- EC50 [6]: 1.48 µM (active)

SMILES: COc1ccc2c3c(n(C)c2c1)[C@H](CO)NCC31CN(Cc2ccc(-c3ccccn3)cc2)C1
- AC50 [7]: 1.15 µM (active)
- AC50 [8]: 11.6 µM (active)

SMILES: O=[N+]([O-])c1cccnc1N1CCC(c2cc(-c3ccc(Cl)cc3)[nH]n2)CC1
- EC50 [9]: 33.3 µM (active)
- EC50 [10]: 9.6 µM (active)
- EC50 [11]: 5.14 µM (active)
- IC50 [12]: > 69.5 µM (inactive)

SMILES: O=C(NCc1nc2ccccc2[nH]1)C1=C[C@@H](C2CC2)C[C@@H](OCc2ccc(CO)cc2)O1
- IC50 [13]: 83.3 µM (inactive)
- IC50 [14]: > 83.3 µM (inactive)
- IC50 [15]: 0.811 µM (active)
- IC50 [16]: 1.62 µM (active)

SMILES: C[C@@H]1CN([C@@H](C)CO)C(=O)c2c(c3ccccc3n2C)-c2ccccc2CO[C@@H]1CN(C)Cc1cccc(F)c1
- AC50 [7]: 3.5 µM (active)
- AC50 [8]: 23.5 µM (active)

SMILES: CN1CCN(c2ccc(NC(=O)c3sc4ccccc4c3Cl)cc2)CC1
- AC50 [17]: 22 µM (active)
- AC50 [18]: 25.5 µM (active)
- AC50 [19]: 7.85 µM (active)
- AC50 [20]: 2.49 µM (active)
- EC50 [6]: > 0.377 µM (active)

SMILES: CCOc1ccc(-c2nnn(CC(=O)c3ccc4c(c3)OCCO4)n2)cc1OCC
- IC50 [21]: > 100 µM (active)

SMILES: COc1ccc(-c2nc3cc(C4=NNC(=O)CC4C)ccc3[nH]2)cc1 (stereo not given) [PIMOBENDAN]
- IC50 [22]: > 10 µM (inactive)
- IC50 [23]: > 10 µM (inactive)

SMILES: Cc1nc2ccc(Br)cc2c(O)c1CN1CCCCCC1
- IC50 [13]: 83.3 µM (inactive)
- IC50 [14]: > 83.3 µM (inactive)
- IC50 [15]: 4.16 µM (active)
- IC50 [16]: 6.91 µM (active)

SMILES: Cc1ccccc1-n1ncc2c(SCC(=O)N3c4ccccc4CC3C)ncnc21 (stereo not given)
- IC50 [24]: > 50 µM (not active)
- IC50 [25]: 11 µM (active)
- AC50 [26]: inconclusive
- EC50 [27]: > 53 µM (inactive)
- IC50 [28]: 11.7 µM (active)
- AC50 [29]: 15.4 µM (active)
- AC50 [30]: 15.4 µM (active)

SMILES: COc1cc(C(=O)OCCCN2CCCN(CCCOC(=O)c3cc(OC)c(OC)c(OC)c3)CC2)cc(OC)c1OC [DILAZEP]
- IC50 [31]: 18 µM (inactive)
- IC50 [32]: 10.2 µM (inactive)

SMILES: Cc1ccc(C(=O)CSc2ccccc2C(=O)O)cc1
- IC50 [33]: 10.8 µM (not active)
